Data published in patent publication US6274588A, “4-phenyl-pyrimidine derivatives” (Hoffmann-La Roche Inc., priority 1999, dated 2001).

Target: T1, human NK1 receptors (Homo sapiens, UniProt P25103)
T1 construct: expressed in transfected cells; host or cells: CHO cells (Semliki virus expression system), membrane suspension
Assay: NK1 receptor binding assay, displacement of [3H]substance P
Conditions: human NK1 receptors in CHO cells (Semliki virus expression system), [3H]substance P 0.6 nM, 60 min at room temperature; for Ki: read-out: affinity to the NK-1 receptor, given as pKi (converted)
Procedure: The affinity of test compounds for the NK1 receptor was evaluated at human NK1 receptors in CHO cells infected with the human NK1 receptor (using the Semliki virus expression system) and radiolabelled with [^3 H]substance P (final concentration 0.6 nM). Binding assays were performed in HEPES buffer (50 mM, pH 7.4) containing BSA (0.04 %) leupeptin (8 μg/ml), MnCl2 (3 mM) and phosphoramidon (2 μM). Binding assays consisted of 250 μl of membrane suspension (1.25×10^5 cells/assay tube), […] of buffer of displacing agent and 125 μl of [^3 H]substance P. Displacement curves were determined with at least seven concentrations of the compound. The assay tubes were incubated for 60 min at room temperature after which time the tube contents were rapidly filtered under vacuum through GF/C filters presoaked for 60 min with PEI (0.3%) with 2×2 ml washed of HEPES buffer (50 mM, pH 7.4). The radioactivity retained on the filters was measured by scintillation counting. All assays were performed in triplicate in at least 2 separate experiments.

T1 sequence (P25103 whole entry): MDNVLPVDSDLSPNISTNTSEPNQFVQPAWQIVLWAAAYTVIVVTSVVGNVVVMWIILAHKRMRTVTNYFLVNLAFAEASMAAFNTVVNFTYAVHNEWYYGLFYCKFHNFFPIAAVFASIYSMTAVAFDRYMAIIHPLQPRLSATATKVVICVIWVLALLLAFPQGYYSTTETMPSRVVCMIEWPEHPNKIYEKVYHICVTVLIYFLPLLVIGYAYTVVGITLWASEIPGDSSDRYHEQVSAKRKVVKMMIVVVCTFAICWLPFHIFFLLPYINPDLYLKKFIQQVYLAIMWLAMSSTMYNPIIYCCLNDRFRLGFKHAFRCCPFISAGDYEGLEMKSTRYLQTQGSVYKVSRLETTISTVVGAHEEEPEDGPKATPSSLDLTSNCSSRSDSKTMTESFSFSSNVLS

Compound	affinity to the NK-1 receptor, given as pKi	Ki [nM]
4-(2-Chloro-phenyl)-2-(3-dimethylamino-ethoxy)-pyrimidine-5-carboxylic acid(3,5-bis-trifluoromethyl-benzyl)-methyl-amide	8.11	–
CN(C)CCOc1ncc(C(=O)N(C)Cc2cc(C(F)(F)F)cc(C(F)(F)F)c2)c(-c2ccccc2Cl)n1 [Example 52, 4-(2-Chloro-phenyl)-2-(2-dimethylamino-ethoxy)-pyrimidine-5-carboxylic Acid (3,5-bis-trifluoromethyl-benzyl)-methyl-amide]	–	3.55
CN(C)CCCOc1ncc(C(=O)N(C)Cc2cc(C(F)(F)F)cc(C(F)(F)F)c2)c(-c2ccccc2Cl)n1 [Example 53, 4-(2-Chloro-phenyl)-2-(3-dimethylamino-propoxy)-pyrimidine-5-carboxylic Acid (3,5-bis-trifluoromethyl-benzyl)-methyl-amide]	–	1.74
Cc1cc(F)ccc1-c1nc(N2CCNCC2)ncc1C(=O)N(C)Cc1cc(C(F)(F)F)cc(C(F)(F)F)c1 [Example 84, 4-(4-Fluor-2-methyl-phenyl)-2-piperazin-1-yl-pyrimidine-5-carboxylic Acid (3,5-bis-trifluoromethyl-benzyl)-methyl-amide]	–	0.724
CN1CCN(c2ncc(C(=O)N(C)Cc3cc(C(F)(F)F)cc(C(F)(F)F)c3)c(-c3cccc4ccccc34)n2)CC1 [Example 88, 2-(4-Methyl-piperazin-1-yl)-4-naphthalen-1-yl-pyrimidine-5-carboxylic Acid (3,5-bis-trifluoromethyl-benzyl)-methyl-amide]	–	2.88
